Consider four molecules from patent publication US20230113802A1, “COMPOSITION AND METHOD TO PREPARE LONG-ACTING INJECTABLE SUSPENSION CONTAINING MULTIPLE CANCER DRUGS” (University of Washington, priority 2020, published 2023).

Like-named read-outs stand apart in the source and are kept apart here. Marks after values point to notes of the source that are not given here.

A short description of data set [1]: Mechanism-based pharmacokinetic modeling (MBPK) of DcNP associated and dissociated GT. More on the design: species or system mice. To be noted: for V, DcNP Dissociated Parameter: fitted to CrEL data. An excerpt:
Briefly, the model adopted here for GT is composed of two sub-models representing DcNP-associated drug and dissociated drug species. Each sub-model has a central compartment and a peripheral compartment. The observed plasma concentration is the sum of DcNP-associated and dissociated species since they cannot be measured separately. […] These parameters were then fixed and the linked sub-models were fitted to the observed total concentrations for G and T obtained after injection of the DcNP-dose. The model reasonably assumed that the pharmacokinetics of drugs released from particles will be the same as that of the free-drug (CrEL) control. It was assumed that G and T are released from the particle at independent rates (k1,3) in the central compartment and only dissociated drugs are subject to clearance from the system (k0,1). […] The peripheral compartment features purely drug exchange between plasma and a group of slowly equilibrating tissues (k4,3, k3,4). In other words, the DcNP-associated drug is cleared only via its release from the particles in the central compartment. […] MBPK modeling and parameter estimations were performed using SAAM II v2.3.
To further understand the effect of DcNP on the pharmacokinetic behavior of GT, a mechanism-based pharmacokinetic model (MBPK) was used to simulate the time course of DcNP-associated and dissociated drugs in plasma. The MBPK model adapted for GT-DcNPs is based on a validated MBPK model developed for long-acting HIV drug combination nanoparticles tested in non-human primates. Experimentally, the total drug concentrations in plasma (i.e., DcNP-associated plus dissociated) can be measured, but DcNP-associated and dissociated drugs could not be distinguished. […] The MBPK model presented in FIG. 4 utilizes data from both DcNP and CrEL control formulation treated animals to estimate plasma concentrations of DcNP-associated and dissociated drug species over time and their respective time-averaged fractions in vivo. After intravenous administration as a DcNP, GT can theoretically exist in at least two species: DcNP-associated drug and dissociated drug. The latter can be reasonably assumed to distribute and be cleared as free G and T after administration of CrEL control formulation.
Individual distribution, metabolism and elimination of G and T are well characterized. […] T is metabolized in the liver primarily by CYP3A4 and CYP2C8 with subsequent excretion of metabolites into the bile. In this model, the k0,1 term represents the aggregate elimination processes of G and T through their independent described pathways. A peripheral compartment for both G and T was added and distribution was parameterized with the k1,2 and k2,1 terms. […] With these assumptions in place, the k1,3 term was set to link the two sub-models and represent the release mechanism of drug from DcNP into the central compartment. The DcNP associated species of G and T was then parameterized with the k4,3 and k3,4 to account for distribution.

A short description of data set [2]: Pharmacokinetic study of GT DcNP vs CrEL drug combination in mice (Example 1). Particulars: GT 50/5 mg/kg IV; for Cmax / AUC(0-t) / t1/2apparent: plasma; for AUC(0-t): iv. Type of data set: in vivo, BALB/c mice. The method, then: Mice were administered with either a CrEL drug combination or GT DcNP intravenously with doses of 50/5 mg/kg GT. […] Each group had three animals and each animal was bled once only. Retro-orbital blood collection in this study was a terminal procedure and animals were under anesthesia at the time of bleeding. After blood collection, mice were euthanized by CO2 overdose followed by cervical dislocation as the secondary method of euthanasia. Drugs in plasma were extracted and analyzed by LC-MS/MS as described below.
A liquid-liquid extraction was used to extract drugs from plasma or tissue homogenates. […] Samples were spiked by internal standards (see below) followed by the addition of acetonitrile. […] The dried samples were reconstituted in 20% methanol and 80% water in 50 μL.
Drugs were quantified by a Shimadzu HPLC system coupled to a 3200 QTRAP mass spectrometer (Applied Biosystems, Grand Island, N.Y.). The HPLC system consisted of two Shimadzu LC-20A pumps, a DGU-20A5 degasser, and a Shimadzu SIL-20AC HT autosampler. The mass spectrometer was equipped with an electrospray ionization (ESI) TurbolonSpray source. The system was operated with Analyst software, version 1.5.2 (ABSciex, Framingham, Mass.).
Chromatographic separation of drugs was achieved using a Synergi column (100×2.0 mm; 4-μm particle size) with an inline C8 guard column (4.0×2.0 mm) (Phenomenex, Torrance, Calif.). An ammonium acetate buffer/reagent alcohol gradient was used to separate components. Analytes were monitored using multiple-reaction monitoring for positive ions.

For data set [3] the following is noted: at 25° C.; cited from earlier work.
For a further data set, the system named is HL-60 cells. The data set can be described thus: Leukemic cell uptake of free versus DcNP-associated drug, HL-60. Type of data set: cell-based, human. Particulars: up to 4 hours. The method, then:
(§1) FIGS. 13A-13D are a series of graphs showing the intracellular drug concentrations following incubation with free or DcNP-bound drug. Three leukemic cell lines were incubated with either free or DcNP-bound drug over four hours, and intracellular drug concentration was measured via LC-MS/MS. Both free drugs show relatively little drug uptake compared to the DcNP formulation. Free drug concentrations are roughly a quarter of the DcNP drug concentrations.
(§2) To quantify drug concentrations (both DcNP-bound and free drug), an extraction protocol was established to quantify venetoclax and zanubrutinib. In short, drug was solubilized by diluting the sample into ethyl acetate, liberating it from either the DcNP lipid matrix, mouse plasma, or both. Following centrifugation to remove organic material, the samples were dried with nitrogen gas, reconstituted in acetonitrile, and loaded onto an LC-MS/MS. Drug concentrations were quantified by comparing sample data with standard curves prepared from untreated mouse plasma spiked with known amounts of drug.
(§3) Separations were carried out on a Synergi column (100×2.0 mm) (Phenomenex, Torrance, USA). A C8 guard column (4.0×2.0 mm) was used (Phenomenex, USA). The separations were done under ambient temperature, and the flow rate was set to 0.55 ml/min. The mobile phase for the separations consisted of buffers A (water with 20 mM ammonium acetate) and B (acetonitrile). The single mobile phase ran for five minutes, and it consisted of 25% buffer A and 75% buffer B.
(§4) HL-60 cells were cultured, counted, and aliquoted into multiple 1.5 mL Eppendorf tubes. A free drug solution of ABT-199 and BGB-3111 (1:1 w/w) was added to half of the tubes, while a DcNP solution of identical drug concentrations was added to the second half of tubes. The cells in the tubes were then allowed to incubate normally. At preselected time points, one incubation tube from each group was removed from the incubator, and the cells inside were washed twice with media to remove external drug and DcNP's. Cells were then lysed with acetonitrile, and drug concentrations were quantified according to the aforementioned extraction and LC-MS/MS protocol.

The conditions of data set [4]: cited from earlier work.
A further data set has as its system MOLT-4 cells. The data set can be described thus: Leukemic cell uptake of free versus DcNP-associated drug, MOLT-4. Type of data set: cell-based, human. On the procedure:
as §1, §2, §3, §4

Where [5] appears, read: model derived, single IV dose in GT DcNP dosage form.
Where [6] appears, read: female, BALB/c, mouse, given in CrEL drug dosage form.
Setting [7] is: female, BALB/c, mouse, given in DcNP dosage form.
Setting [8] is: HL-60, incubation with free drug (1:1 w/w).
Setting [9] is: MOLT-4, incubation with free drug.
[10] abbreviates: model derived, single IV dose in GT DcNP dosage form, listed as G.

Take `CC(=O)O[C@H]1C(=O)[C@@]2(C)[C@H]([C@H](OC(=O)c3ccccc3)[C@]3(O)C[C@H](OC(=O)[C@H](O)[C@@H](NC(=O)c4ccccc4)c4ccccc4)C(C)=C1C3(C)C)[C@]1(OC(C)=O)CO[C@@H]1C[C@@H]2O` [Paclitaxel, [(1S,2S,3R,4S,7R,9S,10S,12R,15S)-4,12-diacetyloxy-15-[(2R,3S)-3-benzamido-2-hydroxy-3-phenylpropanoyl]oxy-1,9-dihydroxy-10,14,17,17-tetramethyl-11-oxo-6-oxatetracyclo[11.3.1.0^3,10.0^4,7]heptadec-13-en-2-yl] benzoate]: the “VDcNP, DcNP Associated Parameter” value in data set [1] (setting [5]) is 0.8^a mL. Further, in data set [2], the “decrease in Cmax, GT DcNP compared to CrEL” value was around 21%. For the same molecule, the Cmax in data set [2] (female, BALB/c, mouse, given in CrEL drug dosage form, read-out: Cmax) was found to be 17.7 µg/mL; in data set [2] (given in DcNP dosage form), 13.9 µg/mL. For the same molecule, the results for the AUC(0-t) in data set [2] (setting [6]) and in data set [2] (setting [7]) were 2490 ng·h/mL and 9810 ng·h/mL, respectively. Further, the figures for the t1/2apparent in data set [2] (given in CrEL drug dosage form) and in data set [2] (given in DcNP dosage form) were 1.81 h and 1.97 h, respectively.
In the case of `C=CC(=O)N1CCC([C@@H]2CCNc3c(C(N)=O)c(-c4ccc(Oc5ccccc5)cc4)nn32)CC1` [Zanubrutinib, (7S)-2-(4-phenoxyphenyl)-7-(1-prop-2-enoylpiperidin-4-yl)-4,5,6,7-tetrahydropyrazolo[1,5-a]pyrimidine-3-carboxamide], in data set [3], the Water solubility is 10.3 µg/mL. Also, the “peak intracellular drug concentration” value came out at 256 ng/million cells with HL-60 cells (HL-60, incubation with DcNP's); 69 ng/million cells in the data set on HL-60 cells (setting [8]); 208 ng/million cells in the data set with MOLT-4 cells (MOLT-4, incubation with DcNP's); 42 ng/million cells with MOLT-4 cells (setting [9]). In addition, the “log P” value in data set [4] was 3.5.
On to `Nc1ccn([C@@H]2O[C@H](CO)[C@@H](O)C2(F)F)c(=O)n1` [Gemcitabine, 4-amino-1-[(2R,4R,5R)-3,3-difluoro-4-hydroxy-5-(hydroxymethyl)oxolan-2-yl]pyrimidin-2-one], for which the “decrease of estimated volume of central compartment, DcNP compared to CrEL” value in data set [1] is listed as 4.6 times. Besides, the “release parameter (k1,3) of G lower than T” value in data set [1] (GT DcNP) is on record as 9.5 fold. In data set [1] (setting [5]), the “K0,1, DcNP Dissociated Parameter” value turned out to be 3.9 ± 0.9 h⁻¹; the “K1,2, DcNP Dissociated Parameter” value was 0.5 ± 0.2 h⁻¹; the “K1,3 (release parameter), DcNP Associated Parameter” value stood at 0.2 ± 0.02 h⁻¹; the “K2,1, DcNP Dissociated Parameter” value was 0.2 ± 0.1 h⁻¹. Besides, in data set [1] (setting [5]), the “K3,4, DcNP Associated Parameter” value worked out at 0.6 ± 0.1 h⁻¹; the “K4,3, DcNP Associated Parameter” value was 1.8 ± 0.5 h⁻¹; the “VDcNP, DcNP Associated Parameter” value worked out at 5.2 ± 0.6 mL; the “V, DcNP Dissociated Parameter” value is reported as 24 ± 12 mL. Moreover, in data set [1] (setting [10]), the “V, DcNP Dissociated Parameter” value is 24 mL; the “K1,3 (release parameter), DcNP Associated Parameter” value turned out to be 0.2 h⁻¹; the “VDcNP, DcNP Associated Parameter” value is given as 5.2 mL. The “increase in Cmax, GT DcNP compared to CrEL” value in data set [2] was around 10%. The AUC(0-t) in data set [2] (setting [6]) was 15300 ng·h/mL. In addition, in data set [2] (setting [7]), the AUC(0-t) is 868000 ng·h/mL. Besides, in data set [2] (given in CrEL drug dosage form), the Cmax was 165.12^b μg/mL and the t1/2apparent is given as 1.60 h. Also, in data set [2] (given in DcNP dosage form), the Cmax turned out to be 181.4 µg/mL and the t1/2apparent is on record as 13.72 h.
Take `CC1(C)CCC(CN2CCN(c3ccc(C(=O)NS(=O)(=O)c4ccc(NCC5CCOCC5)c([N+](=O)[O-])c4)c(Oc4cnc5[nH]ccc5c4)c3)CC2)=C(c2ccc(Cl)cc2)C1` [Venetoclax, 4-[4-[[2-(4-chlorophenyl)-4,4-dimethylcyclohexen-1-yl]methyl]piperazin-1-yl]-N-[3-nitro-4-(oxan-4-ylmethylamino)phenyl]sulfonyl-2-(1H-pyrrolo[2,3-b]pyridin-5-yloxy)benzamide]: in data set [3], the Water solubility is 0.933 µg/mL. Further, the “peak intracellular drug concentration” value worked out at 674 ng/million cells in the data set on HL-60 cells (HL-60, incubation with DcNP's); 192 ng/million cells in the data set on HL-60 cells (setting [8]); 718 ng/million cells in the data set on MOLT-4 cells (MOLT-4, incubation with DcNP's); 176 ng/million cells in the data set with MOLT-4 cells (setting [9]). Moreover, in data set [4], the “log P” value was 6.92.
